According to patent publication US7064190B1, “Antigen-specific, activated T lymphocytes, detection and use” (Roche Diagnostics GmbH, priority 1994, dated 2006):

Legend:
Assay type in all cases: cell-based, human
T cell line 6/10 [1] = test: Proliferation test with variants of the peptide 5G1 using the T cell line 6/10; conditions: for Stimulation index: TCL 6/10, variants of peptide 5G1
Experimental: In order to elucidate the core structure of the stimulating peptide 5G1, proliferation tests were carried out with various variants of this peptide using the T cell line 6/10 (see Table 4).
A test with a first series of 20 mer variants is intended to ascertain whether amino acids which border on the 5G1 structure at the C- or N-terminus play a role in the recognition by the T cell line 6/10. […] A 6 amino acid shift towards the N-terminus leads to a loss in stimulation capacity.
A test with a second series of peptide variants examines the influence of a shortening at the C-terminus.
The object of a test with a third series of peptide variants was to define the N-terminus of the minimum stimulation-active peptide. If the amino acids leucine (L) and proline (P) are removed from a 18 mer with an intact C-terminus, this leads to a strong decrease of the stimulation index. The N-terminus is thus defined by L and P. If the […] is shortened further by H and F this also leads to a loss of stimulation activity.

T cell line 6/7 [2] = test: Proliferation test with peptides derived from the H-GAD sequence, T cell line 6/7; conditions: 10 μg/ml individual peptides from pools 7 and 11, FIG. 5
Experimental: (§1) Autologous PBLs or PBLs of a normal donor which are identical with regard to the HLA class II antigens are used as stimulator cells. The PBLs are pre-incubated with antigen as described in paragraph 2, irradiated with 4000 rad and distributed in 96 well plates (100 000 cells/well).
(§2) After 3–4 days at 37° C./7% CO2, 1 μCi ^3H-thymidine is added and incubated for a further 16–20 hours. Afterwards the cells are transferred onto a glass fibre filter by means of a cell harvester instrument and the incorporated radioactivity is determined in a β counter.
(§3) T cell lines that had been expanded by means of at least 4 restimulation cycles and which reacted with SW-GAD in the proliferation test were additionally tested with overlapping peptides of H-GAD. The object of these experiments is to define the epitopes of H-GAD that are recognized by the T cells. For this, overlapping 20 mer peptides of H-GAD are firstly synthesized (overlapping region 10 amino acids, total of 59 different peptides).
(§4) […] The further treatment of these stimulator cells is carried out as described in section 3a.
(§5) Subsequently 6000–20,000 T cells are added per microculture well. The further procedure is analogous to that described in section 3b.

T cell line 6/10 [3] = test: T cell proliferation with peptides using PBLs of various haplotypes as antigen-presenting cells, TCL 6/10; conditions: for proliferation in the presence of the DR B1 allele 0401: T cell line 6/10; for SI (stimulation index): TCL 6/10
Experimental: (§6) The experimental procedure is analogous to example 1.3. […] The proliferation tests were carried out using the autoantigenic peptides 5G1 (corresponding to amino acids 266–285 of human GAD65) and 5F3 (corresponding to amino acids 306–325 of human GAD65).
(§7) T cell proliferation after stimulation with the peptides 5G1 and 5F3 using PBLs with various haplotypes as antigen-presenting cells

T cell line 6/7 [4] = test: T cell proliferation with peptides using PBLs of various haplotypes as antigen-presenting cells, TCL 6/7; conditions: for SI (stimulation index): TCL 6/7
Experimental: as §6, §7

T cell line 6/10 [5] = test: Proliferation test with peptides derived from the H-GAD sequence, T cell line 6/10; conditions: 10 μg/ml individual peptides from pools 7 and 11, FIG. 6
Experimental: as §1, §2, §3, §4, §5

T cell line 6/10 [6] = test: Proliferation test with SW-GAD, T cell line 6/10; conditions: stimulator PBLs pulsed with SW-GAD
Experimental: (§8) The first restimulation is carried out on the 14th day after the beginning of the primary stimulation. For this, in comparison to the primary stimulation, double the number of autologous PBLs is isolated by means of Ficoll and adjusted in culture medium to a cell concentration of 2×10^6/ml. One half of these stimulator cells is incubated for 2 hours/37° C./7% CO2 with the antigen SW-GAD (final concentration 5 μg/ml) (antigen pulse). The other half is incubated under the same conditions without antigen and only with culture medium. Subsequently all stimulator cells are irradiated with 4000 rad. The stimulator cells are then distributed (100 000 cells/well) in 96 well round-bottom plates in such a way that a well with stimulator cells containing antigen is always adjacent to a well with stimulator cells without antigen.
(§9) All tests are carried out in at least duplicate preparations.
(§10) Autologous PBLs or PBLs of a normal donor which are identical with regard to the HLA class II antigens are used as stimulator cells. […]
as §2

T cell line 6/7 [7] = test: Proliferation test with SW-GAD, T cell line 6/7; conditions: stimulator PBLs pulsed with SW-GAD
Experimental: as §8, §9, §10, §2

[8] = APC donor four (DR B1 0301/0401)
[9] = APC donor one (DR B1 1302/0401)
[10] = APC donor three (DR B1 0301/0404)
[11] = APC donor two (DR B1 0101/1601)

AALPRLIAFTSE [SEQ ID NO:12]
Stimulation index (T cell line 6/10 [1]): 0.6

AALPRLIAFTSEHS [SEQ ID NO:11]
Stimulation index (T cell line 6/10 [1]): 0.7

AALPRLIAFTSEHSHF [SEQ ID NO:10]
Stimulation index (T cell line 6/10 [1]): 2.9

AALPRLIAFTSEHSHFSL [SEQ ID NO:9]
Stimulation index (T cell line 6/10 [1]): 4.5

ALPRLIAFTSEHSHFSLKKG [SEQ ID NO:6]
Stimulation index (T cell line 6/10 [1]): 3.0

ERGKMIPSDLERRILEAKQK (ERGKMIPSDLERRILEAKQK) [5F3, corresponding to amino acids 306–325 of human GAD 65]
proliferation with individual peptides (T cell line 6/7 [2]): smaller but significant proliferation
proliferation in the presence of the DR B1 allele 0401 (T cell line 6/10 [3]): proliferates
SI (stimulation index) (T cell line 6/10 [3]; APC donor 19 (DR B1 0301/0401)): 2.8
SI (stimulation index) (T cell line 6/10 [3]; [8]): 3.8
SI (stimulation index) (T cell line 6/10 [3]; [9]): 6.5
SI (stimulation index) (T cell line 6/10 [3]; [10]): 1.5
SI (stimulation index) (T cell line 6/10 [3]; [11]): 1.4
proliferation in the presence of the DR B1 allele 0401 (T cell line 6/7 [4]; T cell line 6/7): proliferation in the presence of the DR B1 allele 0401 is found
SI (stimulation index) (T cell line 6/7 [4]; APC donor 19 (DR B1 0301/0401)): 3.1
SI (stimulation index) (T cell line 6/7 [4]; [8]): 3.8
SI (stimulation index) (T cell line 6/7 [4]; [9]): 7.0
SI (stimulation index) (T cell line 6/7 [4]; [10]): 0.6
SI (stimulation index) (T cell line 6/7 [4]; [11]): 1.2
proliferation with individual peptides (T cell line 6/10 [5]): smaller but significant proliferation

GMAALPRLIAFTSEHSHFSLKKGAA (GMAALPRLIAFTSEHSHFSLKKGAA) [amino acid sequence (I), amino acid residues 266–290 of the human GAD 65]
proliferation in the presence of the DR B1 allele 0401 (T cell line 6/10 [3]): proliferates
proliferation in the presence of the DR B1 allele 0401 and 0101 or/and 1601 (T cell line 6/7 [4]; T cell line 6/7): proliferates

GMAALPRLIAFT [SEQ ID NO:14]
Stimulation index (T cell line 6/10 [1]): 1.0

GMAALPRLIAFTSE [SEQ ID NO:13]
Stimulation index (T cell line 6/10 [1]): 0.8

GMAALPRLIAFTSEHSHFSL [5G1, corresponding to amino acids 266–285 of human GAD 65]
proliferation with individual peptides (T cell line 6/7 [2]): significant proliferation
Stimulation index (T cell line 6/10 [1]): 5.4
SI (stimulation index) (T cell line 6/10 [3]; APC donor 19 (DR B1 0301/0401)): 8.5
SI (stimulation index) (T cell line 6/10 [3]; [8]): 6.0
SI (stimulation index) (T cell line 6/10 [3]; [9]): 22.6
SI (stimulation index) (T cell line 6/10 [3]; [10]): 1.5
SI (stimulation index) (T cell line 6/10 [3]; [11]): 2.2
recognition in association with the alleles DR B1 0101 or/and 1601 (T cell line 6/7 [4]; T cell line 6/7): recognizes
SI (stimulation index) (T cell line 6/7 [4]; APC donor 19 (DR B1 0301/0401)): 45.7
SI (stimulation index) (T cell line 6/7 [4]; [8]): 55.0
SI (stimulation index) (T cell line 6/7 [4]; [9]): 67.8
SI (stimulation index) (T cell line 6/7 [4]; [10]): 0.9
SI (stimulation index) (T cell line 6/7 [4]; [11]): 28.6
proliferation with individual peptides (T cell line 6/10 [5]): significant proliferation

LPRLIAFTSEHS [SEQ ID NO:18]
Stimulation index (T cell line 6/10 [1]): 0.4

LPRLIAFTSEHSHF [SEQ ID NO:17]
stimulation capacity of 5G1 variants (T cell line 6/10 [1]; T cell line 6/10): minimum peptide that can still stimulate
Stimulation index (T cell line 6/10 [1]): 4.6

LPRLIAFTSEHSHFSLKK [SEQ ID NO:15]
Stimulation index (T cell line 6/10 [1]): 3.2

PEVKEKGMAALPRLIAFTSE [SEQ ID NO:8]
Stimulation index (T cell line 6/10 [1]): 0.6

RLIAFTSEHSHFSL [SEQ ID NO:16]
Stimulation index (T cell line 6/10 [1]): 1.4

RLIAFTSEHSHFSLKKGAAA [SEQ ID NO:7]
Stimulation index (T cell line 6/10 [1]): 3.2

B1: SW-GAD: porcine GAD (glutamic acid decarboxylase from pig brain) used as antigen (protein)
chain: MASSTPSSSATSSNAGPDPNTTNLRPTTYDTWCGVAHGCTRKLGLKICGFLQRTNSLEEKSRLVSAFKERQSSKNLLSCENSDRDGRFRRTETDFSNLFARDLLPAKNGEEQTVQFLLEVVDILLNYVRKTFDRSTKVLDFHHPHQLLEGMEGFNLELSDHPESLEQILVDCRDTLKYGVRTGHPRFFNQLSTGLDIIGLAGEWLTSTANTNMFTYEIAPVFVLMEQITLKKMREIVGWSNKDGDGIFSPGGAISNMYSIMAARYKYFPEVKTKGMAAVPKLVLFTSEHSHYSIKKAGAALGFGTDNVILIKCNERGKIIPADLEAKILEAKQKGYIPLYVNATAGTTVYGAFDPIQEIADICEKYNLWLHVDAAWGGGLLMSRKHRHKLSGIERADSVTWNPHKMMGVLLQCSAILVKEKGILQGCNQMCAGYLFQPDKQYDVSYDTGDKAIQCGRHVDIFKFWLMWKAKGTVGFENQINKCLELAEYLYAKIKNREEFEMVFDGEPEHTNVCFWYIPQSLRGVPDSPERREKLHRVAPKIKALMMESGTTMVGYQPQGDKANFFRMVISNPAATQSDIDFLIEEIERLGQDL
cpm SW-GAD (3H-thymidine incorporation) (T cell line 6/10 [6]): 5222 cpm
cpm SW-GAD (3H-thymidine incorporation) (T cell line 6/7 [7]): 9373 cpm
